Experiment [1] deals with T1, Histone-lysine N-methyltransferase SETDB1 (Homo sapiens, UniProt Q15047). As to the kind of experiment: Binding affinity to N-terminal His6-tagged human SETDB1 Tudor domain (197 to 403 residues) expressed in Escherichia coli BL21(DE3)-pRARE2 cells assessed as induction of HSQC shift at 5 mM by 1H-15 N HSQC-TROSY NMR spectroscopy.
The target in experiment [2] is T1, Histone-lysine N-methyltransferase SETDB1. The experiment in a line: Binding affinity to N-terminally biotinylated human SETDB1 Tudor domain (197 to 403 residues) expressed in Escherichia coli BL21(DE3)-pRARE2 cells by SPR analysis.
For experiment [3] the target is unchanged. The experiment in a line: Binding affinity to N-terminal His6-tagged human SETDB1 Tudor domain (197 to 403 residues) expressed in Escherichia coli BL21(DE3)-pRARE2 cells by ITC assay.
The target is the same in experiment [4]. As to the kind of experiment: Binding affinity to N-terminal His6-tagged human SETDB1 Tudor domain (197 to 403 residues) expressed in Escherichia coli BL21(DE3)-pRARE2 cells assessed as induction of HSQC shift at 10 mM by 1H-15 N HSQC-TROSY NMR spectroscopy.

The source of these data is ChEMBL document CHEMBL4385651, “Identification and characterization of the first fragment hits for SETDB1 Tudor domain” (Bioorg Med Chem, 2019).

The structures appear in SMILES notation. Calls of active or inactive are those of the source. No cut-off for these calls is given here. Where a SMILES comes first, the peptide text is derived from it. [ ]: non-standard residue; d: D form. The star is where a group is joined. X1 = CC(=O)NCc1ccccc1-n1c(C)nnc1CN*; Lys(Me2) = CN(C)CCCC[C@H](N)C(=O)O

Consider `Cc1nnc(C)n1-c1ccccc1CNS(C)(=O)=O`, for which the outcome in experiment [1] was Active. Besides, the Kd in experiment [2] and in experiment [3] was 4 to 17 mM in each case. For `CNC(=O)NCc1ccccc1-n1c(C)nnc1C`, the outcome in experiment [1] was inactive. In the case of `CC(=O)NCc1cc(Br)ccc1-n1c(C)nnc1C`, the affinity in experiment [2], expressed as Kd, was 2.7 mM. That is a millimolar value. For the molecule `Cc1nnc2n1-c1ccccc1COC2`, in experiment [1], the result was Active. Take `CC(C)(C)NC(=O)[C@@H]1Cc2ccccc2CN1`: the Activity in experiment [4] was greater than 0.2 ppm. `CC(=O)NCc1cc(Cl)ccc1-n1c(C)nnc1C`: in experiment [2], binding was characterised by a dissociation constant (Kd) of 2.5 mM. As for `CC(=O)NCc1ccccc1-n1c(C)nnc1CNC(=O)CNC(=O)[C@@H](NC(=O)[C@H](CO)NC(=O)[C@@H](N)CCCCN(C)C)[C@@H](C)O` (H-[Lys(Me2)]STG-X1), the outcome in experiment [1] was Active. Further, binding in experiment [2] was characterised by a dissociation constant (Kd) of 1.27 mM. As for `CC(=O)NCc1cc(C)ccc1-n1c(C)nnc1C`, the Kd – broadly, the constant that tells how readily two partners part at equilibrium – in experiment [2] came to 7.7 mM. For the molecule `CC(=O)NCc1ccccc1-n1c(C)nnc1C`, the outcome in experiment [1] was Active. The Kd in experiment [2] and in experiment [3] was 3.5 mM in each case. Regarding `Cc1nnc(C)n1-c1ccccc1C(=O)O`, the outcome in experiment [1] was inactive. In turn, `CC(=O)NCc1cc(C#N)ccc1-n1c(C)nnc1C` yielded a Kd in experiment [2] of 10 mM.
